Laboratory results published in paper PMC3580045 (Journal of pharmacy & pharmaceutical sciences : a …, 2012).
Like-named read-outs stand apart in the source and are kept apart here. Marks after values point to notes of the source that are not given here.

Legend:
[1] = Hydrolysis in Capan-2 cell homogenate; format: in vitro ADME, human
[2] = Stability in human liver microsomes; settings: for Half-lives, Human Liver Microsomes: mean ± SD, n = 3, NA = no significant degradation
[3] = mean ± SD; cited from earlier work
[4] = Hydrolysis in human tumor liver tissue homogenate; format: in vitro ADME; settings: mean ± SD, n = 3; NA = no significant degradation
[5] = Hydrolysis in human small intestinal; format: in vitro ADME
[6] = Hydrolysis in human non-tumor liver tissue homogenate; format: in vitro ADME; settings: for Half-lives, Human non-Tumor Liver Tissue Homogenate: mean ± SD, n = 3, NA = no significant degradation
[7] = pH 7.4 phosphate buffer, 37°C; mean ± SD; cited from earlier work
[8] = Hydrolysis in Caco-2 cell homogenate; format: in vitro ADME, human; settings: for Half-lives, Caco-2 Cell Homogenate: pH 7.4 phosphate buffer, 37°C, mean ± SD, n = 3, NA = no significant degradation
[9] = mean ± SD; cited from earlier work; remark: listed apart in the source
[10] = Hydrolysis in AsPC-1 cell homogenate; format: in vitro ADME; settings: human, pH 7.4
[11] = Hydrolysis in human pancreas; format: in vitro ADME; settings: human pancreas tissue homogenate
[12] = reported by several groups; cited from earlier work
[13] = phosphate buffer

Half-lives, Human Liver Microsomes [2] | Half-lives, Human Tumor Liver Tissue Homogenate [4] | Half-lives, Human non-Tumor Liver Tissue Homogenate [6] | Half-lives, Caco-2 Cell Homogenate [8] | SMILES | Half-lives, AsPC-1 Cell Homogenate [3] | Half-lives, Buffer pH 7.4 [7] | Half-lives, Capan-2 Cell Homogenate [9] | other results
705.9 ± 64.2 min | 9.4 ± 0.5 ^∞ min | 19.0 ± 0.2 min | 220.4 ± 64.0 min | CC(C)[C@@H](N)C(=O)OC[C@H]1O[C@@H](n2cc(F)c(=O)[nH]c2=O)C[C@@H]1O [5′-O-D-valyl-floxuridine] | 290.9 ± 48.9 ^a min | 344.9 ± 10.2 ^a min |  | Half-lives, Capan-2 Cell Homogenate ([1]; mean ± SD, n = 3, NA = no significant degradation): 188.3 ± 12.1 min; fold better stability than 5′-O-L-valyl-floxuridine ([2]; human liver microsomes): 243 fold; fold more stable in human liver microsomes than in human liver tissue homogenates ([2]; microsomes vs liver tissue homogenates): at least 37 fold; fold more stable than 5′-O-L-valyl-floxuridine ([5]; human intestinal tissue homogenate): 11.3 fold; fold better stability than 5′-O-L-valyl-floxuridine ([6]; human liver tissue homogenates (non-tumor and tumor)): 3- to 10 fold; fold more stable than 5′-O-L-valyl-floxuridine ([8]; Caco-2 homogenate): 16.1 fold
19.4 ± 7.8 min | < 0.2 min ^∞ | 5.2 ± 0.1 min | 131.6 ± 48.4 min | CC[C@H](C)[C@H](N)C(=O)OC[C@H]1O[C@@H](n2cc(F)c(=O)[nH]c2=O)C[C@@H]1O [5′-O-L-isoleucyl-floxuridine] | 198.0 ± 70.2 ^b min | 323.5 ± 1.5 ^a min | 139.9 ± 15.3 ^b min | 
0.8 ± 0.1 min |  | < 0.2 min | 3.3 ± 0.9 min | CC(C)C[C@H](N)C(=O)OC[C@H]1O[C@@H](n2cc(F)c(=O)[nH]c2=O)C[C@@H]1O [5′-O-L-leucyl-floxuridine] | 2.0 ± 0.1 ^a min | 83.2 ± 1.7 ^b min | 4.7 ± 2.1 ^b min | 
15.9 ± 1.9 min |  | 3.2 ± 0.3 min | 2.9 ± 0.5 min | N[C@@H](Cc1ccccc1)C(=O)NCC(=O)OC[C@H]1O[C@@H](n2cc(F)c(=O)[nH]c2=O)C[C@@H]1O [5′-O-L-phenylalanyl-L-glycyl-floxuridine] | 10.2 ± 0.3 ^b min | 132.1 ± 10.2 ^b min | 4.3 ± 0.9 ^b min | 
253.0 ± 36.2 min | 241.4 ± 5.1 min | 358.3 ± 20.3 min | 115.2 ± 54.2 min | N[C@@H](Cc1ccccc1)C(=O)N[C@@H](Cc1ccc(O)cc1)C(=O)OC[C@H]1O[C@@H](n2cc(F)c(=O)[nH]c2=O)C[C@@H]1O [5′-O-L-phenylalanyl-L-tyrosyl-floxuridine] | 59.7 ± 1.4 ^b min | 233.9 ± 6.6 ^b min | 42.8 ± 0.0 ^b min | 
1.3 ± 0.4 min |  | 3.2 ± 1.2 min | 12.2 ± 0.1 min | N[C@@H](Cc1ccccc1)C(=O)OC[C@H]1O[C@@H](n2cc(F)c(=O)[nH]c2=O)C[C@@H]1O [5′-O-L-phenylalanyl-floxuridine] | 11.8 ± 1.7 ^b min | 187.0 ± 19.0 ^b min | 3.0 ± 0.1 ^b min | 
24.7 ± 2.4 min | < 0.2 min ^* ^∞ | 2.2 ± 0.0 min | 57.6 ± 9.3 min | CC(C)[C@H](N)C(=O)N[C@@H](Cc1ccccc1)C(=O)OC[C@H]1O[C@@H](n2cc(F)c(=O)[nH]c2=O)C[C@@H]1O [5′-O-L-valyl-L-phenylalanyl-floxuridine] | 51.6 ± 4.2 ^b min | 104.7 ± 7.0 ^b min | 56.2 ± 12.8 ^b min | 
2.9 ± 0.1 min | 3.5 ± 0.2 ^∞ min | 2.0 ± 0.3 min | 13.7 ± 2.0 min | CC(C)[C@H](N)C(=O)OC[C@H]1O[C@@H](n2cc(F)c(=O)[nH]c2=O)C[C@@H]1O [5′-O-L-valyl-floxuridine] | 18.7 ± 6.7 ^b min | 304.0 ± 33.3 ^b min | 5.2 ± 2.4 ^b min | 
 |  |  |  | O=c1[nH]c(=O)n([C@H]2C[C@H](O)[C@@H](CO)O2)cc1F [Floxuridine, 5-fluoro-2′-deoxyuridine, reference compound] |  |  |  | half-life ([1]; human, Capan-2 cell homogenate, pH 7.4): 17.8 ± 5.8 min; half-life ([2]; human, human liver microsomes): < 0.2 min; half-life [10]: 6.4 ± 3.2 min; stability (in words) [11]: good stability; half-life ([11]; human, non-tumor, pH 7.4): 209 ± 19.4 min; fold higher potency than 5-FU [12]: 10- to 100 fold; half-life ([5]; human, pH 7.4): 14 ± 4 min; half-life ([6]; human, human non-tumor liver tissue homogenate, pH 7.4): 5 ± 2.4 min; half-life ([8]; human, Caco-2, pH 7.4): 14.3 ± 7 min
 |  |  |  | O=C(O[C@H]1C[C@H](n2cc(F)c(=O)[nH]c2=O)O[C@@H]1CO)[C@@H]1CCCN1 [Floxuridine-3′-L-proline] |  |  |  | degradation (in words) ([2]; human liver microsomes, over 2 hr): no significant degradation; stability (in words) [13]: stable; stability (in words) ([5]; human small bowel tissue homogenate): stable; degradation (in words) ([6]; human liver tissue homogenate, over 2 hr): no significant degradation; stability (in words) ([8]; Caco-2 cell homogenate): stable
